# Measurements published in PMC12795810 (Nature Communications, 2025).
# How the values were obtained:
# [1] = when combined with letrozole/abemaciclib
# [2] = cited from earlier work
structure (smiles),measurement,setting,value
CN(C)C(=N)N=C(N)N [metformin],increase in metformin exposure,[1],more than 3 fold
same,recommended maximum concentration for safe clinical use,[2],2500 µg/L
